Measurements reported in US20090270431A1, “Cyclopentenol Nucleoside Compounds Intermediates for their Synthesis and Methods of Treating Viral Infections” (THE UNIVERSITY OF GEORGIA RESEARCH FOUNDATION, priority 2005, published 2009).
Several values for one entry are separate records, joined by “and”; a condition that tells them apart may be missing. Equal values may be shown once. Read-outs that look alike come from different tables or passages of the source.

Tests used:
[1] = test system: Cowpox; assay: microbe, parasite or virus in culture; format: cell-based, cowpox virus; details: Cowpox; CPE; HFF Cells (Table 3); read-out: EC50
[2] = test system: Vaccinia; assay: microbe, parasite or virus in culture; format: cell-based, vaccinia virus; details: VV; CPE; HFF Cells (Table 3); read-out: EC50
[3] = test system: Hepatitis B Virus; assay: in vitro anti-HBV activity, VIR (extracellular virion HBV DNA); format: cell-based; details: HBV; VIR; Huh7 ET (Table 3)
Experimental: In the first biological experiment, a number of 7-deazaneplanocin compounds were tested in vitro to determine activity against hepatitis B virus (HBV).

[4] = test system: SARS; assay: organism not typed; format: cell-based; details: SARS, Vero 76, read-out: EC50
[5] = test system: Flu A (H1N1); assay: microbe, parasite or virus in culture; format: cell-based; details: MDCK, read-out: EC50
[6] = test system: Flu A (H3N2); assay: microbe, parasite or virus in culture; format: cell-based; details: Flu A (H3N2), MDCK, read-out: EC50
[7] = test system: Flu A (H5N1); assay: microbe, parasite or virus in culture; format: cell-based; details: Flu A (H5N1), MDCK, read-out: EC50
[8] = test system: Flu B; format: cell-based; details: MDCK
[9] = test system: Yellow Fever; assay: organism not typed; format: cell-based; details: YF, Vero, read-out: EC50
[10] = test system: Tacaribe; format: cell-based; details: Vero 76
[11] = test system: Dengue; assay: antiviral assay, Dengue in Vero; format: cell-based
[12] = test system: VEE; format: cell-based
[13] = test system: RVF; format: cell-based

**Q.** Which EC50 [1] does the source give for `Nc1nccc2ncn([C@@H]3C=C(CO)[C@@H](O)[C@H]3O)c12` [Compound N7-3-DNPA] here?
**A.** 273 µM

**Q.** And the EC50 [2]?
**A.** > 300 µM

**Q.** What about the EC50 [3] of the same compound?
**A.** > 10 µM

**Q.** What about the EC50 ([4]; NR (Neutral Red)) of the same compound?
**A.** > 100 µM

**Q.** What about the EC50 ([4]; Visual) of the same compound?
**A.** > 100 µM

**Q.** What about the EC50 ([5]; NR) of the same compound?
**A.** > 32 µM

**Q.** And the EC50 ([5]; Visual)?
**A.** > 32 µM

**Q.** And the EC50 ([6]; NR)?
**A.** > 32 µM

**Q.** And the EC50 ([6]; Visual)?
**A.** > 32 µM

**Q.** And the EC50 ([7]; NR)?
**A.** 29 µM

**Q.** What about the EC50 ([7]; Visual) of the same compound?
**A.** 32 µM

**Q.** What about the EC50 ([8]; NR) of the same compound?
**A.** 34 µM

**Q.** What about the EC50 ([8]; Visual) of the same compound?
**A.** 8 µM

**Q.** What about the EC50 ([9]; NR) of the same compound?
**A.** > 100 µM

**Q.** What about the EC50 ([9]; Visual) of the same compound?
**A.** > 100 µM

**Q.** And the EC50 ([10]; NR)?
**A.** 85 µM

**Q.** What about the EC50 ([10]; Visual) of the same compound?
**A.** 52 µM

**Q.** What about the EC50 ([11]; NR) of the same compound?
**A.** > 100 µM

**Q.** What about the EC50 ([11]; Visual) of the same compound?
**A.** > 100 µM

**Q.** What about the EC50 [12] of the same compound?
**A.** 84.6 µM and > 100 µM

**Q.** What about the EC50 [13] of the same compound?
**A.** > 100 µM
